Test results from ChEMBL document CHEMBL1212865, “New porphyrin amino acid conjugates: synthesis and photodynamic effect in human epithelial cells” (Bioorg Med Chem, 2010).
Calls of active or inactive are those of the source. No cut-off for these calls is given here.

Columns and labels:
[1] = test system: HaCaT; test: Phototoxicity against human HaCaT cells assessed as surviving fraction at 12 uM under LED array light; type: functional
[2] = test system: HeLa; test: Phototoxicity against human HeLa cells assessed as surviving fraction at 1.2 uM under LED array light; type: functional
[3] = test system: HaCaT; test: Phototoxicity against human HaCaT cells assessed as surviving fraction at 0.25 uM irradiated with 9.15 mW/cm'2 light for 5 mins by MTT assay; type: functional
[4] = test system: HeLa; test: Phototoxicity against human HeLa cells assessed as surviving fraction at 0.25 uM irradiated with 9.15 mW/cm'2 light for 5 mins by MTT assay; type: functional
[5] = test system: HeLa; test: Phototoxicity against human HeLa cells assessed as surviving fraction at 0.25 uM irradiated with 9.15 mW/cm'2 light for 10 mins by MTT assay; type: functional
[6] = test system: HaCaT; test: Induction of apoptosis in human HaCaT cells assessed as intracellular localization at 0.25 uM with 9.15 mW/cm'2 light for; type: functional, cell-based; conditions: TDE = time-dependent effect
[7] = test system: HeLa; test: Phototoxicity against human HeLa cells assessed as surviving fraction at 0.61 uM under LED array light; type: functional
[8] = test system: HaCaT; test: Phototoxicity against human HaCaT cells assessed as surviving fraction at 1.2 uM under LED array light; type: functional
[9] = test system: HeLa; test: Phototoxicity against human HeLa cells assessed as survival at 0.25 uM irradiated with 9.15 mW/cm'2 light for 10 mins by MTT assay
[10] = test system: HeLa; test: Phototoxicity against human HeLa cells assessed as surviving fraction at 2.4 uM under LED array light; type: functional
[11] = test system: HeLa; test: Phototoxicity against human HeLa cells assessed as surviving fraction at 12 uM under LED array light by MTT assay; type: functional
[12] = test system: HaCaT; test: Phototoxicity against human HaCaT cells assessed as surviving fraction at 0.25 uM irradiated with 9.15 mW/cm'2 light for 20 mins by MTT assay; type: functional
[13] = Photostability of the compound irradiated with 9.15 mW/cm'2 white light; type: physicochemical
[14] = test system: HeLa; test: Phototoxicity against human HeLa cells assessed as surviving fraction at 0.25 uM irradiated with 9.15 mW/cm'2 light for 20 mins by MTT assay; type: functional
[15] = test system: HaCaT; test: Phototoxicity against human HaCaT cells assessed as surviving fraction at 0.22 uM under LED array light by MTT assay; type: functional
[16] = test system: HaCaT; test: Phototoxicity against human HaCaT cells assessed as surviving fraction at 2.4 uM under LED array light; type: functional
[17] = test system: HaCaT; test: Phototoxicity against human HaCaT cells assessed as surviving fraction at 0.25 uM irradiated with 9.15 mW/cm'2 light for 10 mins by MTT assay; type: functional
[18] = test system: HeLa; test: Phototoxicity against human HeLa cells assessed as surviving fraction at 0.22 uM under LED array light; type: functional
[19] = test system: HaCaT; test: Phototoxicity against human HaCaT cells assessed as surviving fraction at 0.61 uM under LED array light by MTT assay; type: functional
[20] = test system: HaCaT; test: Induction of apoptosis in human HaCaT cells assessed as change in cellular morphology after irradiation with 9.15 mW/cm'2 light; type: functional, cell-based
[21] = test system: HeLa; test: Phototoxicity against human HeLa cells assessed as surviving fraction at 0.3 uM irradiated with 9.15 mW/cm'2 light for 5 mins by MTT assay; type: functional
[22] = test system: HaCaT; test: Induction of apoptosis in human HaCaT cells assessed as change in loss of adheshin after irradiation with 9.15 mW/cm'2 light for 10 mins; type: functional, cell-based
[23] = test system: HeLa; test: Phototoxicity against human HeLa cells assessed as surviving fraction at 0.3 uM irradiated with 9.15 mW/cm'2 light for 15 mins by MTT assay; type: functional
[24] = test system: HaCaT; test: Induction of apoptosis in human HaCaT cells assessed as intracellular localization at 0.3 uM with 9.15 mW/cm'2 light for; type: functional, cell-based; conditions: TDE = time-dependent effect
[25] = test system: HeLa; test: Induction of apoptosis in human HeLa cells assessed as intracellular localization at 0.25 uM with 9.15 mW/cm'2 light for; type: functional, cell-based; conditions: TDE = time-dependent effect
[26] = test system: HeLa; test: Phototoxicity against human HeLa cells assessed as survival at 0.3 uM irradiated with 9.15 mW/cm'2 light for 10 mins by MTT assay
[27] = test system: HaCaT; test: Induction of apoptosis in human HaCaT cells assessed as change in cytoplasmic vacuolization after irradiation with 9.15 mW/cm'2 light for 10 mins; type: functional, cell-based
[28] = test system: HaCaT; test: Phototoxicity against human HaCaT cells assessed as surviving fraction at 0.3 uM irradiated with 9.15 mW/cm'2 light for 10 mins by MTT assay; type: functional
[29] = test system: HeLa; test: Phototoxicity against human HeLa cells assessed as surviving fraction at 0.3 uM irradiated with 9.15 mW/cm'2 light for 10 mins by MTT assay; type: functional
[30] = test system: HaCaT; test: Phototoxicity against human HaCaT cells assessed as surviving fraction at 0.3 uM irradiated with 9.15 mW/cm'2 light for 15 mins by MTT assay; type: functional
[31] = test system: HaCaT; test: Phototoxicity against human HaCaT cells assessed as surviving fraction at 0.3 uM irradiated with 9.15 mW/cm'2 light for 5 mins by MTT assay; type: functional
[32] = test system: HaCaT; test: Induction of apoptosis in human HaCaT cells assessed as change in loss of basophilia after irradiation with 9.15 mW/cm'2 light for 10 mins; type: functional, cell-based
[33] = Induction of singlet oxygen production at 1 uM after irradiation at 10 mW/cm'2 in presence of 1,3-diphenylisobenzofuran; type: physicochemical
[34] = test system: HaCaT; test: Phototoxicity against human HaCaT cells assessed as surviving fraction at 1.2 uM irradiated with 9.15 mW/cm'2 light for 20 mins by MTT assay; type: functional
[35] = test system: HaCaT; test: Phototoxicity against human HaCaT cells assessed as surviving fraction at 1.2 uM irradiated with 9.15 mW/cm'2 light for 10 mins by MTT assay; type: functional
[36] = test system: HeLa; test: Phototoxicity against human HeLa cells assessed as surviving fraction at 1.2 uM irradiated with 9.15 mW/cm'2 light for 20 mins by MTT assay; type: functional
[37] = test system: HeLa; test: Phototoxicity against human HeLa cells assessed as survival at 1.2 uM irradiated with 9.15 mW/cm'2 light for 10 mins by MTT assay
[38] = test system: HeLa; test: Phototoxicity against human HeLa cells assessed as surviving fraction at 1.2 uM irradiated with 9.15 mW/cm'2 light for 5 mins by MTT assay; type: functional
[39] = test system: HaCaT; test: Induction of apoptosis in human HaCaT cells assessed as intracellular localization at 1.2 uM with 9.15 mW/cm'2 light for; type: functional, cell-based; conditions: TDE = time-dependent effect
[40] = test system: HeLa; test: Phototoxicity against human HeLa cells assessed as surviving fraction at 1.2 uM irradiated with 9.15 mW/cm'2 light for 10 mins by MTT assay; type: functional

SMILES	Activity [1]	Activity [2]	Activity [7]	Activity [8]	Activity [10]	Activity [11]	Activity [15]	Activity [16]	Activity [18]	Activity [19]	Activity [20]	Activity [25]	further results
COC(=O)CNC(=O)c1ccc(-c2c3nc(c(-c4cccc(OC)c4)c4ccc([nH]4)c(-c4cccc(OC)c4)c4nc(c(-c5cccc(OC)c5)c5ccc2[nH]5)C=C4)C=C3)cc1	24.3%	106.97%	110.38%	102.19%	104.89%	60.42%	94.98%	109.91%	107.31%	97.96%	Active		Activity [3]: 82.69%; Activity [4]: 3.74%; Activity [5]: 1.13%; Activity [6]: tde; Survival [9]: 50.96%; Activity [12]: 22.11%; Stability [13]: Stable; Activity [14]: 1.32%; Activity [17]: 50.96%
COC(=O)C(CC[S+](C)[O-])NC(=O)c1ccc(-c2c3nc(c(-c4cccc(OC)c4)c4ccc([nH]4)c(-c4cccc(OC)c4)c4nc(c(-c5cccc(OC)c5)c5ccc2[nH]5)C=C4)C=C3)cc1 (configuration not stated)	16.9%	95.69%	92.61%	103.4%	93.5%	16.93%	99.2%	101.3%	93.26%	101.5%		tde	Activity [21]: 56.87%; Activity [22]: Active; Activity [23]: 10.93%; Activity [24]: tde; Survival [26]: 53.02%; Activity [27]: Active; Activity [28]: 53.02%; Activity [29]: 14.23%; Activity [30]: 28.2%; Activity [31]: 76.87%; Activity [32]: Active
COC(=O)C(CO)NC(=O)c1ccc(-c2c3nc(c(-c4cccc(OC)c4)c4ccc([nH]4)c(-c4cccc(OC)c4)c4nc(c(-c5cccc(OC)c5)c5ccc2[nH]5)C=C4)C=C3)cc1 (configuration not stated)	96.98%	102.78%	100.28%	102.65%	91.48%	67.33%	101.49%	97.54%	102.58%	104.72%	Active	tde	Activity [33]: Active; Activity [34]: 22.54%; Activity [35]: 42.75%; Activity [36]: 0%; Survival [37]: 42.75%; Activity [38]: 8%; Activity [39]: tde; Activity [40]: 0%
